The assay relates to B6C3F1 mice, ip Sarcoma M5076, median survival T/C. Kind of assay: NCI In Vivo Anticancer Drug Screen. Data for tumor model Sarcoma M5076 (intraperitoneal) in B6C3F1 mice. As to conditions: endpoint: median survival time, higher = longer survival. The essentials:
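The readout is a ratio of survival in drug-treated animals to survival in animals given vehicle alone, taken in mice bearing a transplanted tumour line.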

The mark [1] stands for this setting: dose: 25.0 mg/kg/injection, schedule: Q04DX004 (ip), vehicle: saline with Tween-80.
Setting [2] is: dose: 50.0 mg/kg/injection, schedule: Q04DX004 (ip), vehicle: saline with Tween-80.
[3] abbreviates: dose: 100.0 mg/kg/injection, schedule: Q04DX004 (ip), vehicle: saline with Tween-80.
Setting [4] is: dose: 200.0 mg/kg/injection, schedule: Q04DX004 (ip), vehicle: saline with Tween-80.
[5] abbreviates: dose: 400.0 mg/kg/injection, schedule: Q04DX004 (ip), vehicle: saline with Tween-80.
[6] abbreviates: dose: 25.0 mg/kg/injection, schedule: Q04DX004 (ip), vehicle: saline.
Where [7] appears, read: dose: 50.0 mg/kg/injection, schedule: Q04DX004 (ip), vehicle: saline.
The mark [8] stands for this setting: dose: 100.0 mg/kg/injection, schedule: Q04DX004 (ip), vehicle: saline.
Setting [9] is: dose: 200.0 mg/kg/injection, schedule: Q04DX004 (ip), vehicle: saline.
Setting [10] is: dose: 50.0 mg/kg/injection, schedule: Q04DX004 (ip), vehicle: Klucel (hydroxypropylcellulose) (HPC).
The mark [11] stands for this setting: dose: 100.0 mg/kg/injection, schedule: Q04DX004 (ip), vehicle: Klucel (hydroxypropylcellulose) (HPC).

Values joined by “and” are separate entries in the source; they are usually repeats but may differ in a detail not shown here. Equal values may be shown once. Inconclusive results and toxic doses are left out.

`Cc1c(-c2ccc(-c3ccccc3F)cc2)nc2ccc(F)cc2c1C(=O)O`: the T/C was 124 % of control (dose: 6.25 mg/kg/injection, schedule: Q01DX009 (ip), vehicle: water); 123 % of control (dose: 12.5 mg/kg/injection, schedule: Q01DX009 (ip), vehicle: water); 124 % of control (dose: 25.0 mg/kg/injection, schedule: Q01DX009 (ip), vehicle: water).
As to `O=S(Cl)C(Cl)=C(Cl)Cl` (centres undefined), the T/C (dose: 25.0 mg/kg/injection, schedule: Q04DX004 (ip), vehicle: Klucel (hydroxypropylcellulose) (HPC)) was 86 % of control.
Consider `O=C(CN1CCOCC1)Nc1nc(-c2ccc(Cl)cc2)cs1`, for which the T/C is 100 % of control (dose: 6.25 mg/kg/injection, schedule: Q04DX004 (ip), vehicle: DMSO); 93 % of control (dose: 12.5 mg/kg/injection, schedule: Q04DX004 (ip), vehicle: DMSO); 121 % of control (dose: 25.0 mg/kg/injection, schedule: Q04DX004 (ip), vehicle: DMSO); 112 % of control under setting [1]; 89 % of control (dose: 50.0 mg/kg/injection, schedule: Q04DX004 (ip), vehicle: DMSO); 92 % of control under setting [2]. The T/C is 87 % of control and 92 % of control (dose: 100.0 mg/kg/injection, schedule: Q04DX004 (ip), vehicle: DMSO); 91 % of control under setting [3]; 98 % of control under setting [4]; 105 % of control under setting [5].
On to `CCOC(=O)c1cc(-c2ccccc2)c(OC)c(=O)nc1-c1ccccc1`, for which the T/C under setting [2] was 89 % of control.
Consider `COc1cc(NCc2ccc3nc(N)nc(N)c3c2C)cc(OC)c1OC`, for which the T/C is 117 % of control and 122 % of control (dose: 7.5 mg/kg/injection, schedule: Q04DX004 (ip), vehicle: Klucel (hydroxypropylcellulose) (HPC)); 152 % of control and 154 % of control (dose: 30.0 mg/kg/injection, schedule: Q04DX004 (ip), vehicle: Klucel (hydroxypropylcellulose) (HPC)); 162 % of control and 172 % of control and 179 % of control (dose: 60.0 mg/kg/injection, schedule: Q04DX004 (ip), vehicle: Klucel (hydroxypropylcellulose) (HPC)); 167 % of control (dose: 120.0 mg/kg/injection, schedule: Q04DX004 (ip), vehicle: Klucel (hydroxypropylcellulose) (HPC)).
Take `O=C(Nc1nc(-c2ccccc2)cs1)OCC(Cl)(Cl)Cl`: the T/C is 103 % of control under setting [1]; 107 % of control under setting [2]; 94 % of control under setting [3]; 91 % of control under setting [4]; 91 % of control under setting [5].
With `CCCCCCCCCCCC1C(C#N)C(=O)NC(=O)C1C#N` (centres undefined), the T/C (dose: 50.0 mg/kg/injection, schedule: Q04DX004 (ip), vehicle: Klucel + Tween-80) was 104 % of control; the T/C (dose: 100.0 mg/kg/injection, schedule: Q04DX004 (ip), vehicle: Klucel + Tween-80) was 93 % of control; the T/C (dose: 200.0 mg/kg/injection, schedule: Q04DX004 (ip), vehicle: Klucel + Tween-80) is 96 % of control; the T/C (dose: 400.0 mg/kg/injection, schedule: Q04DX004 (ip), vehicle: Klucel + Tween-80) was 93 % of control; the T/C (dose: 800.0 mg/kg/injection, schedule: Q04DX004 (ip), vehicle: Klucel + Tween-80) was 93 % of control.
As to `CCN(CC)CCCC(C)Nc1c2ccc(Cl)cc2nc2ccc(OC)cc12` (centres undefined), the T/C is 111 % of control under setting [6], 115 % of control under setting [7], 112 % of control under setting [8] and 91 % of control under setting [9].
`COc1ccc(OC)c(N2C(=O)C(=O)C(C(C)=O)C2=O)c1` (centres undefined): the T/C under setting [10] was 104 % of control and the T/C under setting [11] was 100 % of control.
With `CN1C(=O)OC(c2ccc(Cl)cc2)C1=O` (centres undefined), the T/C is, setting by setting: under setting [10], 92 % of control; under setting [11], 93 % of control; (dose: 200.0 mg/kg/injection, schedule: Q04DX004 (ip), vehicle: Klucel (hydroxypropylcellulose) (HPC)) 94 % of control; (dose: 400.0 mg/kg/injection, schedule: Q04DX004 (ip), vehicle: Klucel (hydroxypropylcellulose) (HPC)) 97 % of control.
`NC(=O)c1c[nH]n(C2OC(CO)C(O)C2O)c1=O` (centres undefined): the T/C is, setting by setting: (dose: 12.5 mg/kg/injection, schedule: Q04DX004 (ip), vehicle: saline) 99 % of control; under setting [6], 98 % of control; under setting [7], 105 % of control; under setting [8], 98 % of control; under setting [9], 101 % of control.
As for `COC1C(N)C(OC2C(Oc3cccc4c(O)c5c(=O)oc6ccc(C)c7c(=O)oc(c34)c5c67)OC(C)C(O)C2(C)O)OC(C)C1O` (centres undefined), the T/C by setting is: (dose: 2.5 mg/kg/injection, schedule: Q04DX004 (ip), vehicle: other) 153 % of control; (dose: 10.0 mg/kg/injection, schedule: Q04DX004 (ip), vehicle: DMSO) 246 % of control; (dose: 10.0 mg/kg/injection, schedule: Q04DX004 (ip), vehicle: other) 165 % of control.
As for `O=C(O)C1CC(O)CN1` (centres undefined), the T/C runs as follows: (dose: 50.0 mg/kg/injection, schedule: Q04DX004 (ip), vehicle: suspension in saline) 110 % of control; (dose: 100.0 mg/kg/injection, schedule: Q04DX004 (ip), vehicle: suspension in saline) 103 % of control; (dose: 200.0 mg/kg/injection, schedule: Q04DX004 (ip), vehicle: suspension in saline) 97 % of control; (dose: 400.0 mg/kg/injection, schedule: Q04DX004 (ip), vehicle: suspension in saline) 102 % of control; (dose: 800.0 mg/kg/injection, schedule: Q04DX004 (ip), vehicle: suspension in saline) 100 % of control.
As for `Nc1nc2c(ncn2C2OC(CO)C(O)C2O)c(=O)[nH]1` (centres undefined), the T/C (dose: 75.0 mg/kg/injection, schedule: Q04DX004 (ip), vehicle: saline with Tween-80) is 107 % of control; the T/C (dose: 150.0 mg/kg/injection, schedule: Q04DX004 (ip), vehicle: saline with Tween-80) was 114 % of control; the T/C (dose: 300.0 mg/kg/injection, schedule: Q04DX004 (ip), vehicle: saline with Tween-80) is 114 % of control; the T/C (dose: 600.0 mg/kg/injection, schedule: Q04DX004 (ip), vehicle: saline with Tween-80) was 114 % of control; the T/C (dose: 1200.0 mg/kg/injection, schedule: Q04DX004 (ip), vehicle: saline with Tween-80) is 109 % of control.
As to `[Na+]`, the T/C is, setting by setting: (dose: 50.0 mg/kg/injection, schedule: Q04DX004 (ip), vehicle: water) 94 % of control; (dose: 100.0 mg/kg/injection, schedule: Q04DX004 (ip), vehicle: water) 97 % of control; (dose: 200.0 mg/kg/injection, schedule: Q04DX004 (ip), vehicle: water) 101 % of control; (dose: 400.0 mg/kg/injection, schedule: Q04DX004 (ip), vehicle: water) 88 % of control; (dose: 800.0 mg/kg/injection, schedule: Q04DX004 (ip), vehicle: water) 98 % of control.
Consider `[CH3][Sn]([CH3])([Cl])[c]1cc[c]([Sn]([CH3])([CH3])[Cl])cc1`, for which the T/C is, setting by setting: (dose: 0.25 mg/kg/injection, schedule: Q04DX004 (ip), vehicle: saline) 108 % of control; (dose: 0.5 mg/kg/injection, schedule: Q04DX004 (ip), vehicle: saline) 105 % of control; (dose: 1.0 mg/kg/injection, schedule: Q04DX004 (ip), vehicle: saline) 87 % of control; (dose: 2.0 mg/kg/injection, schedule: Q04DX004 (ip), vehicle: saline) 91 % of control.
As for `Cn1c2c(c3nc(N)nc(N)c3c1=O)CCc1ccccc1-2`, the T/C was 100 % of control (dose: 25.0 mg/kg/injection, schedule: Q04DX004 (ip), vehicle: distilled water + alcohol); 104 % of control (dose: 50.0 mg/kg/injection, schedule: Q04DX004 (ip), vehicle: distilled water + alcohol); 100 % of control (dose: 100.0 mg/kg/injection, schedule: Q04DX004 (ip), vehicle: distilled water + alcohol).
Turning to `COc1cccc2sc(-n3c(C)nc4ccccc4c3=O)nc12`, the T/C is 109 % of control (dose: 31.25 mg/kg/injection, schedule: Q04DX004 (ip), vehicle: Klucel (hydroxypropylcellulose) (HPC)); 94 % of control (dose: 62.5 mg/kg/injection, schedule: Q04DX004 (ip), vehicle: Klucel (hydroxypropylcellulose) (HPC)); 93 % of control (dose: 125.0 mg/kg/injection, schedule: Q04DX004 (ip), vehicle: Klucel (hydroxypropylcellulose) (HPC)); 94 % of control (dose: 250.0 mg/kg/injection, schedule: Q04DX004 (ip), vehicle: Klucel (hydroxypropylcellulose) (HPC)); 95 % of control (dose: 500.0 mg/kg/injection, schedule: Q04DX004 (ip), vehicle: Klucel (hydroxypropylcellulose) (HPC)).

Source of the values: PubChem BioAssay AID292 (DTP/NCI, 2004).
